From ChEMBL document CHEMBL1158027, “Sesquiterpene esters of aristolochic acid from the root and stem of Aristolochia heterophylla” (J Nat Prod, 1999)

Test: Cytotoxicity against human HepG2(2.2.15) cells
Assay type: functional, cell-based

| SMILES | IC50 |
| --- | --- |
| C/C1=C\CC/C(C=O)=C/[C@H](OC(=O)c2cc3c(c4c2c([N+](=O)[O-])cc2ccccc24)OCO3)C/C(C)=C/CC1 | 8.23 µM |
| COc1cccc2c1cc([N+](=O)[O-])c1c(C(=O)O[C@H]3/C=C(/C=O)CC/C=C(\C)CC/C=C(\C)C3)cc3c(c12)OCO3 | 5.44 µM |
| C/C1=C\CC/C(C=O)=C\[C@H](OC(=O)c2cc3c(c4c2c([N+](=O)[O-])cc2ccccc24)OCO3)C/C(C)=C/CC1 | 7.53 µM |
| COc1cccc2c1cc([N+](=O)[O-])c1c(C(=O)O[C@H]3/C=C(\C=O)CC/C=C(\C)CC/C=C(\C)C3)cc3c(c12)OCO3 | 4.83 µM |
